US20090203577A1 (EXELIXIS, INC., priority 2005, published 2009)
Converted amounts (≈) assume the structure as drawn.

Assays:
[1] = system: patients with hypertriglyceridemia; conditions: cited from earlier work
male LDLR−/− mice = assay: Compound effects in diet-induced hyperlipidemic LDLR-/- mice (plasma triglyceride and cholesterol); format: in vivo, mouse
Description: Young adult male mice (˜8 weeks of age) were purchased from conventional vendors and group housed (3-4/cage) with ad libitum access to chow and water, in a temperature- and light-controlled vivarium (lights on at 06:00 hours, off at 18:00 hours). Compounds were administered daily by oral gavage in the morning (˜08:00 hrs), in a final volume of 0.1 ml/mouse, with the first dose of compound delivered on study day 0. Compounds were solubilized by gentle mixing in PEG400:Tween80 (4:1) for at least several hours and usually overnight prior to initiation of dosing. When necessary, solutions were sonicated briefly to ensure complete compound solubilization.
Blood samples (˜0.15 ml/mouse) were obtained from the retro-orbital sinus of non-fasted isoflurane-anesthetized mice, 3 hours after drug dosing. Blood samples were collected into heparin-coated tubes, and plasma was recovered following centrifugation. Plasma total cholesterol and triglyceride levels were determined by […] enzymatic commercially available assays that were adapted to 96-well plate formats. Plasma HDL cholesterol (HDL-C) was determined by removing non-HDL-C from the plasma with a precipitating reagent, and then determining the plasma cholesterol levels in the remaining HDL-C fraction. Plasma triglycerides concentrations, determined from a blood sample obtained in the 24 hours prior to the first dose, were used to group the mice such that the pre-study triglyceride levels between groups were equivalent prior to initiation of the dosing regimen.
Male LDLR^−/− mice (JAX Mice, Bar Harbor, Me.) consumed a purified “Western” diet (˜21% fat, 0.02% cholesterol w/w) ad libitum, for two weeks prior to and during treatment with Compound C daily by oral gavage at a dose of 10 mg/kg/day for 7 days (n=9-10/group).
In a separate study utilizing the same mouse model ([…]) subjected to the dietary lead-in for 8 weeks, LDLR^−/− mice were treated with Compound B at a dose of 10 mg/kg/day for 6 weeks.

physchem = conditions: pH 7.4, aqueous buffer, kinetic from dmso stock
[2] = target: T1, human farnesoid X receptor (Homo sapiens, UniProt Q96RI1); assay: FXR in vitro assays (farnesoid X receptor/ECREx7 co-transfection assay, TR-FRET assay), Table I; format: cell-based; conditions: for EC50: agonist activity, one or more of the in vitro assays, read-out: EC50; for Emax: read-out: % Efficacy
T1 construct: CMX-farnesoid X receptor (full length human farnesoid X receptor); expressed in transfected cells; host or cells: CV-1 African Green Monkey Kidney cells
T1 sequence (Q96RI1 1-472 isoform Q96RI1-2): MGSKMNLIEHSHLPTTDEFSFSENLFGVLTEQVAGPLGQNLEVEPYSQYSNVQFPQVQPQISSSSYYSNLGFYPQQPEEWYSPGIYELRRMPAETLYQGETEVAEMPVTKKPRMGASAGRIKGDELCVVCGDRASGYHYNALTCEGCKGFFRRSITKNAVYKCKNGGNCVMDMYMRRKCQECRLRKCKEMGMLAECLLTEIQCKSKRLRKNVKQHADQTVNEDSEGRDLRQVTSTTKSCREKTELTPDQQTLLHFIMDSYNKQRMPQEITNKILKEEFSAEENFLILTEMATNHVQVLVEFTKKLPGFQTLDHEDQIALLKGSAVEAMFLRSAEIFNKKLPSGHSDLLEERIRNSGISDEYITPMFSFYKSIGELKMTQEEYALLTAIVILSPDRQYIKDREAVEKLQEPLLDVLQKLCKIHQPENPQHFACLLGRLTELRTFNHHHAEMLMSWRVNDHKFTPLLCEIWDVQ
T1 sequence (P19793 1-462 partner): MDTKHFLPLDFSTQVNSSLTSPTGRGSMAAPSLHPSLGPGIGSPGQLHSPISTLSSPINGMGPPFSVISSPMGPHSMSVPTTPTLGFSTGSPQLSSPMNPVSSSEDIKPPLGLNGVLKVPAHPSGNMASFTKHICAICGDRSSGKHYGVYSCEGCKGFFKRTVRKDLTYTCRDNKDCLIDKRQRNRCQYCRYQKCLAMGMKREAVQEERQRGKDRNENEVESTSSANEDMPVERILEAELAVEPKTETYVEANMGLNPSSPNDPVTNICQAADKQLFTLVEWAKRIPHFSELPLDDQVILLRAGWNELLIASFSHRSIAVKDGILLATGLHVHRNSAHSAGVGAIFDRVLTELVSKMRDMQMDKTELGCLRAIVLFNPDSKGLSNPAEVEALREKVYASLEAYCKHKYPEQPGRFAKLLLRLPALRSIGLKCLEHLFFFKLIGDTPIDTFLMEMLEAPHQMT
In short: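 CV-1 monkey kidney cells transfected for an FXR/ECREx7 luciferase co-transfection reporter; luciferase read 18-20 h later in lysates. 8-point dose-response at ½-log spacing, 4 wells per point; EC50/IC50 from four-parameter Hill fit, averaged over at least 3 independent experiments.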

[3] = Western diet 8 weeks lead-in, 10 mg/kg/day for 6 weeks

| Structure (SMILES) | solubility kinetic at 1.5 h (physchem) [µM] | EC50 [2] [µM] | Emax [2] [%] | other results |
| --- | --- | --- | --- | --- |
| C[C@H](CCC(=O)O)[C@H]1CC[C@H]2[C@@H]3[C@H](O)C[C@@H]4C[C@H](O)CC[C@]4(C)[C@H]3CC[C@]12C [CDCA, chenodeoxycholic acid] | – | – | – | plasma triglyceride levels [1]: significantly lowers |
| CCOC(=O)C1=CN(C(=O)c2ccc(F)c(F)c2)CC(C)(C)c2c1[nH]c1ccccc21 [Compound B, Ethyl 3-(3,4-difluorobenzoyl)-1,1-dimethyl-1,2,3,6-tetrahydro-azepino[4,5-b]indole-5-carboxylate] | – | – | – | plasma cholesterol concentrations (male LDLR−/− mice; [3]): lowered; plasma triglyceride concentrations (male LDLR−/− mice; [3]): lowered |
| CC(C)OC(=O)C1=CN(C(=O)c2ccc(F)c(F)c2)CC(C)(C)c2c1[nH]c1ccccc21 [Compound C, isopropyl 3-(3,4-difluorobenzoyl)-1,1-dimethyl-1,2,3,6-tetrahydroazepino[4,5-b]indole-5-carboxylate] | – | – | – | plasma triglyceride concentrations (male LDLR−/− mice; Western diet 2 weeks lead-in, 10 mg/kg/day oral gavage, study day 7): reduced plasma triglyceride concentrations to the level observed prior to introduction of the high-fat chow; lowering of plasma total cholesterol levels (male LDLR−/− mice; Western diet 2 weeks lead-in, 10 mg/kg/day oral gavage, study day 7, p<0.05 vs. vehicle): ~40%; plasma lipid profiles (male LDLR−/− mice; daily dosing throughout the 6 weeks of study, continued Western diet): sustained normalization |
| CC(C)OC(=O)C1=CN(C(=O)c2ccc(C(F)(F)F)c(Cl)c2F)CC(C)(C)c2c1[nH]c1ccccc21 [Example 132, 1-methylethyl 3-{[3-chloro-2-fluoro-4-(trifluoromethyl)phenyl]car-bonyl}-1,1-dimethyl-1,2,3,6-tetrahydroazepino[4,5-b]indole-5-carboxylate] | 1 to 10 (≈ 0.523 to 5.23 µg/mL) | 0.1 to 1 | > 100 | – |
| CC(C)OC(=O)C1=CN(C(=O)c2cc(F)cc(C(F)(F)F)c2)CC(C)(C)c2c1[nH]c1ccccc21 [Example 134, 1-methylethyl 3-{[3-fluoro-5-(trifluoromethyl)phenyl]car-bonyl}-1,1-dimethyl-1,2,3,6-tetrahydroazepino[4,5-b]indole-5-carboxylate] | 1 to 10 (≈ 0.488 to 4.88 µg/mL) | 0.01 to 0.1 | > 100 | – |
| CC(C)OC(=O)C1=CN(C(=O)c2cc(C(F)(F)F)cc(C(F)(F)F)c2)CC(C)(C)c2c1[nH]c1ccccc21 [Example 135, 1-methylethyl 3-{[3,5-bis(trifluoromethyl)phenyl]carbonyl}-1,1-dimethyl-1,2,3,6-tetrahydroazepino[4,5-b]indole-5-carboxylate] | 1 to 10 (≈ 0.538 to 5.38 µg/mL) | 0.01 to 0.1 | > 100 | – |
| CC(C)OC(=O)C1=CN(C(=O)c2cc(C(F)(F)F)ccc2C(F)(F)F)CC(C)(C)c2c1[nH]c1ccccc21 [Example 137, 1-methylethyl 3-{[2,5-bis(trifluoromethyl)phenyl]carbonyl}-1,1-dimethyl-1,2,3,6-tetrahydroazepino[4,5-b]indole-5-carboxylate] | 0.1 to 1 (≈ 0.0538 to 0.538 µg/mL) | 0.1 to 1 | > 100 | – |
| CC(C)OC(=O)C1=CN(C(=O)c2ccc(C(F)(F)F)c(F)c2F)CC(C)(C)c2c1[nH]c1ccccc21 [Example 138, 1-methylethyl 3-{[2,3-difluoro-4-(trifluoromethyl)phenyl]car-bonyl}-1,1-dimethyl-1,2,3,6-tetrahydroazepino[4,5-b]indole-5-carboxylate] | 0.1 to 1 (≈ 0.0506 to 0.506 µg/mL) | 0.01 to 0.1 | > 100 | – |
| CC(C)OC(=O)C1=CN(C(=O)c2cccc(O)c2)CC(C)(C)c2c1[nH]c1ccccc21 [Example 139, 1-methylethyl 3-[(3-hydroxyphenyl)carbonyl]-1,1-dimethyl-1,2,3,6-tetrahydroazepino[4,5-b]indole-5-carboxylate] | 1 to 10 (≈ 0.418 to 4.18 µg/mL) | 0.01 to 0.1 | > 100 | – |
| CC(C)OC(=O)C1=CN(C(=O)c2cccc(OCCN(C)C)c2)CC(C)(C)c2c1[nH]c1ccccc21 [Example 140, 1-methylethyl 3-[(3-{[2-(dimethylamino)ethyl]oxy}phenyl)carbonyl]-1,1-dimethyl-1,2,3,6-tetrahydroazepino[4,5-b]indole-5-carboxylate] | > 10 | – | > 100 | – |
| CC(=O)N1CCN(Cc2cccc(C(=O)N3C=C(C(=O)OC(C)C)c4[nH]c5ccccc5c4C(C)(C)C3)c2)CC1 [Example 146, 1-methylethyl 3-({3-[(4-acetylpiperazin-1-yl)methyl]phenyl}carbonyl)-1,1-dimethyl-1,2,3,6-tetrahydroazepino[4,5-b]indole-5-carboxylate] | 1 to 10 (≈ 0.543 to 5.43 µg/mL) | 0.1 to 1 | > 100 | – |
| CC1(C)CN(C(=O)c2ccc(F)c(F)c2)C=C(C(=O)OC[C@@H](O)CO)c2[nH]c3ccccc3c21 [Example 171, (2S)-2,3-dihydroxypropyl-3-[(3,4-difluorophenyl)carbonyl]-1,1-dimethyl-1,2,3,6-tetrahydroazepino[4,5-b]indole-5-carboxylate] | > 10 | 0.01 to 0.1 | > 100 | – |
| CC(=O)N1CCCN(Cc2cccc(C(=O)N3C=C(C(=O)OC(C)C)c4[nH]c5ccccc5c4C(C)(C)C3)c2)CC1 [Example 177, 1-methylethyl 3-({3-[(4-acetyl-1,4-diazepan-1-yl)methyl]phenyl}carbonyl)-1,1-dimethyl-1,2,3,6-tetrahydroazepino[4,5-b]indole-5-carboxylate] | 1 to 10 (≈ 0.557 to 5.57 µg/mL) | 0.1 to 1 | > 100 | – |
| CCNC(=O)N1CCN(Cc2cccc(C(=O)N3C=C(C(=O)OC(C)C)c4[nH]c5ccccc5c4C(C)(C)C3)c2)CC1 [Example 185, 1-methylethyl 3-{[3-({4-[(ethylamino)carbonyl]piper-azin-1-yl}methyl)phenyl]carbonyl}-1,1-dimethyl-1,2,3,6-tetrahydroazepino[4,5-b]indole-5-carboxylate] | 1 to 10 (≈ 0.572 to 5.72 µg/mL) | 0.1 to 1 | > 100 | – |
| CC(CO)OC(=O)C1=CN(C(=O)c2ccc(F)c(F)c2)CC(C)(C)c2c1[nH]c1ccccc21 (centres unmarked) [Example 193, 2-hydroxy-1-methylethyl 3-[(3,4-difluorophenyl)carbonyl]-1,1-dimethyl-1,2,3,6-tetrahydroazepino[4,5-b]indole-5-carboxylate] | 1 to 10 (≈ 0.454 to 4.54 µg/mL) | 0.01 to 0.1 | > 100 | – |
| CC1(C)CN(C(=O)c2ccc(F)c(F)c2)C=C(C(=O)OCCO)c2[nH]c3ccccc3c21 [Example 196, 2-hydroxyethyl 3-[(3,4-difluorophenyl)carbonyl]-1,1-dimethyl-1,2,3,6-tetrahydroazepino[4,5-b]indole-5-carboxylate] | 1 to 10 (≈ 0.44 to 4.4 µg/mL) | 0.01 to 0.1 | > 100 | – |
